Values of other authors as cited in patent US20170189347A1, “TRANSDERMAL DELIVERY SYSTEM” (priority 2014, published 2017).

Columns and labels:
[1] = biological target: MAO-B (Homo sapiens, UniProt P27338); details: in humans
[2] = biological target: MAO-A (Homo sapiens, UniProt P21397); details: in humans
[3] = not given; remark: listed apart in the source

Chain of MAO-A (P21397 whole entry): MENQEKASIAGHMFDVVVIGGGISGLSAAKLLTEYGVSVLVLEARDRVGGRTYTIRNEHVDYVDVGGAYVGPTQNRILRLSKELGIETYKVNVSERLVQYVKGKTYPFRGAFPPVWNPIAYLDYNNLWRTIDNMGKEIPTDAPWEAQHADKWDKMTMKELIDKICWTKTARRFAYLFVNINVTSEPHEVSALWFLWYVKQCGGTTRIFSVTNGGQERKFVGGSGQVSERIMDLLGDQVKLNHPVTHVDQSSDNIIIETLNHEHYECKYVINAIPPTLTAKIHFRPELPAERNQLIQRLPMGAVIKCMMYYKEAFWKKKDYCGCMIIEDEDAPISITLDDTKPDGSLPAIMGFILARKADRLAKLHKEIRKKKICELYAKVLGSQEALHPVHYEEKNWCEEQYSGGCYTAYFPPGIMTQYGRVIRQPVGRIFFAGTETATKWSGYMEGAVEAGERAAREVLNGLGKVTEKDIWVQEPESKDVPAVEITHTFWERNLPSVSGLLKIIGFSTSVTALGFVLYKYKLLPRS
Chain of MAO-B (P27338 whole entry): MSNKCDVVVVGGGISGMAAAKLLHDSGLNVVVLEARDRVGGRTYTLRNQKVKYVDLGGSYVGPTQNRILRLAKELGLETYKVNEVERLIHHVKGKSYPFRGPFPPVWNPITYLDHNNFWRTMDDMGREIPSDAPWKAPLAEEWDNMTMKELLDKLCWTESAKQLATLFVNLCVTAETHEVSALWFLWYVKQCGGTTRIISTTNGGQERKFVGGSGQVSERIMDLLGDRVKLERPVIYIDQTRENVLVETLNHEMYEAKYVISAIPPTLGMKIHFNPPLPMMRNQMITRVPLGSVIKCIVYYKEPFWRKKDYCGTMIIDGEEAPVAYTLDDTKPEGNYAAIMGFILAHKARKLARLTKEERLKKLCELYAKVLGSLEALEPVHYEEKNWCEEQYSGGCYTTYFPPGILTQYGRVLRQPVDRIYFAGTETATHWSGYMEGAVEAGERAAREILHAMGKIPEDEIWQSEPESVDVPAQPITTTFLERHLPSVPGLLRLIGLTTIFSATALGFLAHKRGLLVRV

Row | SMILES | inhibition of MAO-B [1] | inhibition of MAO-A [2] | solubility in water | solubility in non-crosslinked acrylic copolymer PSA DT 87-4098 ([3]; DT 87-4098) [wt %] | solubility in non-crosslinked acrylic copolymer PSA DT 87-9088 ([3]; DT 87-9088) [wt %] | solubility in non-crosslinked acrylic copolymer PSA DT 87-9301 ([3]; DT 87-9301) [wt %] | solubility in polyisobutylene (PIB) PSA ([3]; PIB) | solubility in silicone PSA ([3]; silicone PSA) [wt %]
1 | C#CCN[C@@H]1CCc2ccccc21 [rasagiline, (1R)-N-(prop-2-yn-1-yl)-2,3-dihydro-1H-inden-1-amine] | selectively inhibit MAO-B | not to inhibit MAO-A | 0.025 grams of drug per liter of water | 54 | 111 | 78 | about 8 wt % | ~6
2 | C#CCN(C)[C@H](C)Cc1ccccc1 [selegiline] |  |  | 0.025 grams of drug per liter of water |  |  |  |  | 
